According to ChEMBL document CHEMBL3217547, “3-Substituted coumarins as dual inhibitors of AChE and MAO for the treatment of Alzheimer's disease” (Medchemcomm, 2012):
Calls of active or inactive are those of the source. The rule behind the calls is not given here.

Assays:
[1] = molecular target: T1, Amine oxidase [flavin-containing] A (Homo sapiens, UniProt P21397); assay: Inhibition of recombinant human MAO-A assessed as production of hydrogen peroxide from p-tyramine up to 100 uM after 15 mins by Amplex Red assay; conditions: 0.25 h
T1 sequence (P21397 whole entry): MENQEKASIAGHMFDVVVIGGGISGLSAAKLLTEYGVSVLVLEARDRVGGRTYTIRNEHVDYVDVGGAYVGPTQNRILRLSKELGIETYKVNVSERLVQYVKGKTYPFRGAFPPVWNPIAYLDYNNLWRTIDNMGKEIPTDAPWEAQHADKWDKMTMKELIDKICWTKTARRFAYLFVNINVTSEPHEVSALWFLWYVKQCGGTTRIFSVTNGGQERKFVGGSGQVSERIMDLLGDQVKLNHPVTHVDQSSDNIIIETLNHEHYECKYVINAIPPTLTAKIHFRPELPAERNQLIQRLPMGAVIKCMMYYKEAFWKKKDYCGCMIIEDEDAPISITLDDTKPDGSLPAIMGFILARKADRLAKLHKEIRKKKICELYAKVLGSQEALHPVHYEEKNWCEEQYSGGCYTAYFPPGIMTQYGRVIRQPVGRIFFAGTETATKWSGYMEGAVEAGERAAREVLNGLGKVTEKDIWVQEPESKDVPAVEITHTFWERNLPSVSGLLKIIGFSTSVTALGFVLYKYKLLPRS

Acetylcholinesterase [2] = molecular target: T2, Acetylcholinesterase (Homo sapiens, UniProt P22303); assay: Inhibition of recombinant human AChE expressed in HEK293 cells using acetylthiocholine iodide as substrate at 100 uM preincubated for 5 mins before substrate addition measured after 10 mins by Ellman's method
[3] = molecular target: T3, Amine oxidase [flavin-containing] B (Homo sapiens, UniProt P27338)
T3 sequence (P27338 whole entry): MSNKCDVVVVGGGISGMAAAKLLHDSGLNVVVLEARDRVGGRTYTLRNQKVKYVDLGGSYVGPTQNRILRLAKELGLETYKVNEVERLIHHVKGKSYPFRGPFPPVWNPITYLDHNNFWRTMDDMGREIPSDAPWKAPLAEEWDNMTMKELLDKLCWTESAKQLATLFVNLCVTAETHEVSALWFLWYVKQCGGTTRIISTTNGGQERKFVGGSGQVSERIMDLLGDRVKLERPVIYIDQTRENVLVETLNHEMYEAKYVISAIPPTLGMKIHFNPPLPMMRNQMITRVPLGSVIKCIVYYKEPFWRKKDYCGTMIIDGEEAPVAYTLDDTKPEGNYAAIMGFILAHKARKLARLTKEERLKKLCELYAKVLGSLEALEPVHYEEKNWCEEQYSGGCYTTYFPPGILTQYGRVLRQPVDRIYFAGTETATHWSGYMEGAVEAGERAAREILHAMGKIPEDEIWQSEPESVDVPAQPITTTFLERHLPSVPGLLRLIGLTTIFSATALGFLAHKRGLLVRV
Description: Inhibition of recombinant human MAO-B assessed as production of hydrogen peroxide from p-tyramine after 15 mins by Amplex Red assay

Acetylcholinesterase [4] = molecular target: T2, Acetylcholinesterase; assay: Inhibition of recombinant human AChE expressed in HEK293 cells using acetylthiocholine iodide as substrate preincubated for 5 mins before substrate addition measured after 10 mins by Ellman's method
[5] = molecular target: T3, Amine oxidase [flavin-containing] B; assay: Inhibition of recombinant human MAO-B assessed as production of hydrogen peroxide from p-tyramine up to 100 uM after 15 mins by Amplex Red assay; conditions: 0.25 h
[6] = molecular target: T1, Amine oxidase [flavin-containing] A; assay: Inhibition of recombinant human MAO-A assessed as production of hydrogen peroxide from p-tyramine after 15 mins by Amplex Red assay
[7] = molecular target: T3, Amine oxidase [flavin-containing] B; assay: Inhibition of recombinant human MAO-B assessed as production of hydrogen peroxide from p-tyramine at 100 uM after 15 mins by Amplex Red assay; conditions: 0.25 h

T2 sequence (P22303 whole entry): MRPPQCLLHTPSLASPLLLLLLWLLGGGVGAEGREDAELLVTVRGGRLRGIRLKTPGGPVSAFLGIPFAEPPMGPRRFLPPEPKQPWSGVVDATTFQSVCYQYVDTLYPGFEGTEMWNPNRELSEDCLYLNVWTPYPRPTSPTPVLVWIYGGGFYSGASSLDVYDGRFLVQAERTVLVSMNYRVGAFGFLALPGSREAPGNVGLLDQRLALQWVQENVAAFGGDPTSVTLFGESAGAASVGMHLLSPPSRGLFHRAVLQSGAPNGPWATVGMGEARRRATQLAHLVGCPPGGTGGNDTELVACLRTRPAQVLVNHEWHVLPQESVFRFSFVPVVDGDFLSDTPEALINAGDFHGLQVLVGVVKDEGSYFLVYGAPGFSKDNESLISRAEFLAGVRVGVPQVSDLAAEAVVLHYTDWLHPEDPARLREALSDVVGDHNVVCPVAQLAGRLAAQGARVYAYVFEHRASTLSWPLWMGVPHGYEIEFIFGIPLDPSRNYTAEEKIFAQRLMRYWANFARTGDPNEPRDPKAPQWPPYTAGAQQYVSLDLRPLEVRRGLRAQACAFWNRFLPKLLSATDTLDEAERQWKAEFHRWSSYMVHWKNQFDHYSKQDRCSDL

Row | Structure (SMILES) | inhibition (INH) [1] | inhibition (Acetylcholinesterase [2]) | IC50 [3] [µM] | IC50 (Acetylcholinesterase [4]) [µM] | inhibition (INH) [5] | IC50 [6] [µM] | inhibition at 100 µM [7] [%]
1 | O=c1oc2ccccc2cc1-c1ccccc1 | Not Active | inactive | – | – | – | – | –
2 | O=C(Nc1cc2ccccc2oc1=O)C1CCCCC1 | Not Active | inactive | 50 | – | – | – | –
3 | COc1ccc(C(=O)Nc2cc3ccccc3oc2=O)cc1OC | Not Active | inactive | 58.4 | – | – | – | –
4 | Cc1ccc(C(=O)Nc2cc3ccccc3oc2=O)cc1 | Not Active | – | 7.96 | 18.4 | – | – | –
5 | O=C(CBr)Nc1cc2ccccc2oc1=O | Not Active | inactive | – | – | Not Active | – | –
6 | O=C(Nc1cc2ccccc2oc1=O)c1ccc(Cl)c(Cl)c1 | Not Active | – | 5.95 | 15 | – | – | –
7 | O=C(Nc1cc2ccccc2oc1=O)c1ccccc1 | Not Active | inactive | 0.76 | – | – | – | –
8 | Cc1ccc(C(=O)Nc2cc3cc(C)ccc3oc2=O)cc1 | – | – | 0.17 | 41.4 | – | 46 | –
9 | Cc1ccc(-c2cc3cc(C)ccc3oc2=O)cc1 | Not Active | inactive | – | – | – | – | –
10 | O=C(CCl)Nc1cc2ccccc2oc1=O | Not Active | inactive | – | – | Not Active | – | –
11 | COc1ccc(C(=O)Nc2cc3ccccc3oc2=O)cc1 | Not Active | – | 30.5 | 69.5 | – | – | –
12 | COc1cc(C(=O)Nc2cc3ccccc3oc2=O)cc(OC)c1OC | Not Active | inactive | 72.6 | – | – | – | –
13 | O=C(Nc1cc2ccccc2oc1=O)c1ccc(Cl)cc1 | Not Active | – | 1.95 | 18.7 | – | – | –
14 | Cc1ccc2oc(=O)c(-c3ccccc3)cc2c1 | Not Active | inactive | – | – | – | – | –
15 | O=C(Nc1cc2ccccc2oc1=O)c1ccc([N+](=O)[O-])cc1 | Not Active | – | – | 12.9 | Not Active | – | –
16 | CC(=O)Nc1cc2ccccc2oc1=O | – | inactive | – | – | – | 38.9 | 40
